Drawing on ChEMBL document CHEMBL4616684, “Potential Cancer Treatment by Agonists of the Stimulator of Interferon Genes” (ACS Med Chem Lett, 2020), this text covers Activity and EC50 for six molecules.

Test [1] deals with Stimulator of interferon genes protein (Homo sapiens) (UniProt Q86WV6). Nature of the test: Agonist activity at STING in human THP1 cells assessed as assessed as increase in IFNbeta secretion at 30 uM measured after 5 hrs by AlphaLISA assay relative to 2'3'-cGAMP. To be noted: THP-1. It is filed as cell-based. Background: Bead proximity is the source of the signal in Alpha formats.

Test [2] has as its target Stimulator of interferon genes protein (Homo sapiens, UniProt Q86WV6, G230A/R293Q/R71H). In words: Activation of full length human STNG R71H/G230A/R293Q mutant expressed in Trichoplusia ni cell membrane incubated for 60 mins followed by addition of [3H]cGAMP by competitive binding assay. It is filed as cell membranes.

Chain of Stimulator of interferon genes protein (Q86WV6 whole entry R71H/G230A/R293Q): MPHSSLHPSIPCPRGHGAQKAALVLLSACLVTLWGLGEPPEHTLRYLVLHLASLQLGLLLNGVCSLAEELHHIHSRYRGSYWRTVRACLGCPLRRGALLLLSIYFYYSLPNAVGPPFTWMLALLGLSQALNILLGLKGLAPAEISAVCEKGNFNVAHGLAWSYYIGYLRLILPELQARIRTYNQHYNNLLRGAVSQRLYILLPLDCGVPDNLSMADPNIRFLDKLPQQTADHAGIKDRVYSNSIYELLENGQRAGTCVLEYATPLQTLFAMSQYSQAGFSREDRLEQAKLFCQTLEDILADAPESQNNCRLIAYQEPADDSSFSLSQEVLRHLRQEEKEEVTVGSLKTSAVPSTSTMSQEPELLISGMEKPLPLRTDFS
Chain of Stimulator of interferon genes protein (Homo sapiens) (Q86WV6 whole entry): as the sequence (Q86WV6 whole entry R71H/G230A/R293Q) above, with H71R, A230G, Q293R counted along it

On to `COc1cc2cc(C(=O)CCC(=O)O)sc2nc1OC`, for which the Activity in test [1] was found to be 146%. Besides, the EC50 – broadly, the midpoint of the concentration-response curve – in test [2] was determined as 5.51 µM.

`CCC(CC(=O)c1cc2nc(OC)c(OC)cc2s1)C(=O)O` (configuration not stated): the Activity in test [1] came out at 85%. Further, the response in test [2] was half-maximal at 1.75 µM (EC50).

For `COc1cc2sc(C(=O)C[C@H](C)C(=O)O)nc2nc1OC`, the Activity in test [1] was 14%. In addition, a half-maximal response in test [2] (EC50) required 10.1 µM.

Regarding `COc1cc2sc(C(=O)C[C@H](C)C(=O)O)nc2cc1Br`, the Activity in test [1] stood at 11%. Besides, the half-maximal effective concentration (EC50) in test [2] is 10.6 µM.

With `COc1cc2sc(C(=O)C3CC3C(=O)O)cc2nc1OC` (configuration not stated), the Activity in test [1] is 100%. For the same molecule, a half-maximal effect in test [2] (EC50) was put at 1.15 µM.

As to `COc1cc2nc(C(=O)CCC(=O)O)sc2cc1OC`, the Activity in test [1] came out at 56%. The molecule also registered an EC50 in test [2] of 13.3 µM.
